Results: PubChem BioAssay (NCI)
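Values below derive from 48-hour exposures of cells grown in 96-well plates, with endpoints linearly interpolated between the two concentrations bracketing the appropriate inhibition level. TGI: concentration producing complete growth inhibition.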

How the values were obtained:
Test in all cases: growth of human tumour cells (NCI), 48 h
ACHN renal = system: ACHN renal
OVCAR-8 ovarian = system: OVCAR-8 ovarian
OVCAR-5 ovarian = system: OVCAR-5 ovarian
HOP-92 NSCLC = system: HOP-92 NSCLC
RXF 393 renal = system: RXF 393 renal
HS 578T breast = system: HS 578T breast
TK-10 renal = system: TK-10 renal
COLO 205 colon = system: COLO 205 colon
NCI/ADR-RES ovarian = system: NCI/ADR-RES ovarian
RPMI-8226 leukemia = system: RPMI-8226 leukemia
SK-OV-3 ovarian = system: SK-OV-3 ovarian
MDA-MB-435 = system: MDA-MB-435
786-0 renal = system: 786-0 renal
SR leukemia = system: SR leukemia
SF-295 CNS = system: SF-295 CNS
SF-539 CNS = system: SF-539 CNS
M14 melanoma = system: M14 melanoma
KM12 colon = system: KM12 colon
MOLT-4 leukemia = system: MOLT-4 leukemia
HCC-2998 colon = system: HCC-2998 colon
CCRF-CEM leukemia = system: CCRF-CEM leukemia
SK-MEL-2 melanoma = system: SK-MEL-2 melanoma
LOX IMVI melanoma = system: LOX IMVI melanoma
SF-268 CNS = system: SF-268 CNS
U251 CNS = system: U251 CNS
OVCAR-3 ovarian = system: OVCAR-3 ovarian
NCI-H522 lung = system: NCI-H522 lung
T-47D breast = system: T-47D breast
SK-MEL-28 melanoma = system: SK-MEL-28 melanoma
PC-3 prostate = system: PC-3 prostate
HCT-116 colon = system: HCT-116 colon
OVCAR-4 ovarian = system: OVCAR-4 ovarian
SK-MEL-5 melanoma = system: SK-MEL-5 melanoma
UACC-62 melanoma = system: UACC-62 melanoma
MDA-N = system: MDA-N
EKVX NSCLC = system: EKVX NSCLC
HL-60(TB) leukemia = system: HL-60(TB) leukemia
A498 renal = system: A498 renal
BT-549 breast = system: BT-549 breast
NCI-H23 lung = system: NCI-H23 lung
SW-620 colon = system: SW-620 colon
HT29 colon = system: HT29 colon
HCT-15 colon = system: HCT-15 colon
SN12C renal = system: SN12C renal
SNB-75 CNS = system: SNB-75 CNS
NCI-H460 lung = system: NCI-H460 lung
CAKI-1 renal = system: CAKI-1 renal
A549 NSCLC = system: A549 NSCLC
UO-31 renal = system: UO-31 renal
MDA-MB-231 breast = system: MDA-MB-231 breast
IGROV1 ovarian = system: IGROV1 ovarian
HOP-62 NSCLC = system: HOP-62 NSCLC
DU-145 prostate = system: DU-145 prostate
MALME-3M melanoma = system: MALME-3M melanoma
MCF7 breast = system: MCF7 breast
NCI-H226 lung = system: NCI-H226 lung
SNB-19 CNS = system: SNB-19 CNS
K-562 leukemia = system: K-562 leukemia
UACC-257 melanoma = system: UACC-257 melanoma

Question: For Cc1ccc(N=Nc2c(C)nn(C(=O)CC(=O)Nc3ccccc3)c2C)cc1C, which TGI (ACHN renal) is on record?
Answer: The TGI was over 100 µM.

Question: What about the TGI (OVCAR-8 ovarian) of the same compound?
Answer: The TGI was over 100 µM.

Question: What about the TGI (OVCAR-5 ovarian) of the same compound?
Answer: Its TGI is over 100 µM.

Question: What about the TGI (HOP-92 NSCLC) of the same compound?
Answer: The TGI was over 100 µM.

Question: And the TGI (RXF 393 renal)?
Answer: Its TGI is over 100 µM.

Question: And the TGI (HS 578T breast)?
Answer: Its TGI is over 100 µM.

Question: And the TGI (TK-10 renal)?
Answer: Its TGI is over 100 µM.

Question: What about the TGI (COLO 205 colon) of the same compound?
Answer: Its TGI is over 100 µM.

Question: What about the TGI (NCI/ADR-RES ovarian) of the same compound?
Answer: The TGI was over 100 µM.

Question: And the TGI (RPMI-8226 leukemia)?
Answer: The TGI was over 100 µM.

Question: And the TGI (SK-OV-3 ovarian)?
Answer: The TGI was over 100 µM.

Question: What about the TGI (MDA-MB-435) of the same compound?
Answer: The TGI was over 100 µM.

Question: And the TGI (786-0 renal)?
Answer: The TGI was over 100 µM.

Question: And the TGI (SR leukemia)?
Answer: The TGI was over 100 µM.

Question: And the TGI (SF-295 CNS)?
Answer: The TGI was over 100 µM.

Question: What about the TGI (SF-539 CNS) of the same compound?
Answer: Its TGI is over 100 µM.

Question: What about the TGI (M14 melanoma) of the same compound?
Answer: Its TGI is over 100 µM.

Question: And the TGI (KM12 colon)?
Answer: The TGI was over 100 µM.

Question: What about the TGI (MOLT-4 leukemia) of the same compound?
Answer: The TGI was over 100 µM.

Question: And the TGI (HCC-2998 colon)?
Answer: Its TGI is over 100 µM.

Question: And the TGI (CCRF-CEM leukemia)?
Answer: The TGI was over 100 µM.

Question: And the TGI (SK-MEL-2 melanoma)?
Answer: The TGI was over 100 µM.

Question: And the TGI (LOX IMVI melanoma)?
Answer: The TGI was over 100 µM.

Question: And the TGI (SF-268 CNS)?
Answer: The TGI was over 100 µM.

Question: What about the TGI (U251 CNS) of the same compound?
Answer: Its TGI is over 100 µM.

Question: And the TGI (OVCAR-3 ovarian)?
Answer: The TGI was over 100 µM.

Question: What about the TGI (NCI-H522 lung) of the same compound?
Answer: The TGI was over 100 µM.

Question: What about the TGI (T-47D breast) of the same compound?
Answer: Its TGI is over 100 µM.

Question: What about the TGI (SK-MEL-28 melanoma) of the same compound?
Answer: The TGI was over 100 µM.

Question: What about the TGI (PC-3 prostate) of the same compound?
Answer: The TGI was over 100 µM.

Question: What about the TGI (HCT-116 colon) of the same compound?
Answer: Its TGI is over 100 µM.

Question: And the TGI (OVCAR-4 ovarian)?
Answer: The TGI was over 100 µM.

Question: What about the TGI (SK-MEL-5 melanoma) of the same compound?
Answer: Its TGI is over 100 µM.

Question: What about the TGI (UACC-62 melanoma) of the same compound?
Answer: The TGI was over 100 µM.

Question: And the TGI (MDA-N)?
Answer: The TGI was over 100 µM.

Question: What about the TGI (EKVX NSCLC) of the same compound?
Answer: The TGI was over 100 µM.

Question: What about the TGI (HL-60(TB) leukemia) of the same compound?
Answer: Its TGI is over 100 µM.

Question: What about the TGI (A498 renal) of the same compound?
Answer: Its TGI is over 100 µM.

Question: And the TGI (BT-549 breast)?
Answer: Its TGI is over 100 µM.

Question: What about the TGI (NCI-H23 lung) of the same compound?
Answer: Its TGI is over 100 µM.

Question: And the TGI (SW-620 colon)?
Answer: The TGI was over 100 µM.

Question: And the TGI (HT29 colon)?
Answer: The TGI was over 100 µM.

Question: What about the TGI (HCT-15 colon) of the same compound?
Answer: Its TGI is over 100 µM.

Question: What about the TGI (SN12C renal) of the same compound?
Answer: Its TGI is over 100 µM.

Question: And the TGI (SNB-75 CNS)?
Answer: The TGI was over 100 µM.

Question: What about the TGI (NCI-H460 lung) of the same compound?
Answer: The TGI was over 100 µM.

Question: And the TGI (CAKI-1 renal)?
Answer: The TGI was over 100 µM.

Question: And the TGI (A549 NSCLC)?
Answer: The TGI was over 100 µM.

Question: What about the TGI (UO-31 renal) of the same compound?
Answer: The TGI was over 100 µM.

Question: And the TGI (MDA-MB-231 breast)?
Answer: Its TGI is over 100 µM.

Question: What about the TGI (IGROV1 ovarian) of the same compound?
Answer: Its TGI is over 100 µM.

Question: What about the TGI (HOP-62 NSCLC) of the same compound?
Answer: The TGI was over 100 µM.

Question: And the TGI (DU-145 prostate)?
Answer: Its TGI is over 100 µM.

Question: And the TGI (MALME-3M melanoma)?
Answer: Its TGI is over 100 µM.

Question: What about the TGI (MCF7 breast) of the same compound?
Answer: Its TGI is over 100 µM.

Question: What about the TGI (NCI-H226 lung) of the same compound?
Answer: The TGI was over 100 µM.

Question: What does the source list for COc1ccc2nc3cc(Cl)ccc3c(NCCCCCC(=O)NC(COc3cnc4c(ccc5cccnc54)c3)COc3cnc4c(ccc5cccnc54)c3)c2c1?
Answer: TGI (ACHN renal): > 100 µM; TGI (OVCAR-8 ovarian): > 100 µM; TGI (OVCAR-5 ovarian): > 100 µM; TGI (HOP-92 NSCLC): > 100 µM; TGI (RXF 393 renal): 30.2 µM; TGI (HS 578T breast): > 100 µM; TGI (TK-10 renal): 91.6 µM; TGI (COLO 205 colon): 10.7 µM; TGI (NCI/ADR-RES ovarian): > 100 µM; TGI (RPMI-8226 leukemia): 20.2 µM; TGI (SK-OV-3 ovarian): > 100 µM; TGI (MDA-MB-435): > 100 µM; TGI (786-0 renal): 28.1 µM; TGI (SR leukemia): 11.7 µM; TGI (SF-295 CNS): 55.5 µM; TGI (SF-539 CNS): 53.5 µM; TGI (M14 melanoma): > 100 µM; TGI (KM12 colon): > 100 µM; TGI (MOLT-4 leukemia): 11.6 µM; TGI (HCC-2998 colon): 27.9 µM; TGI (CCRF-CEM leukemia): 12.6 µM; TGI (SK-MEL-2 melanoma): 41.5 µM; TGI (LOX IMVI melanoma): 86.4 µM; TGI (SF-268 CNS): 40.2 µM; TGI (U251 CNS): 21.8 µM; TGI (OVCAR-3 ovarian): 34.6 µM; TGI (NCI-H522 lung): > 100 µM; TGI (T-47D breast): 28.6 µM; TGI (SK-MEL-28 melanoma): > 100 µM; TGI (PC-3 prostate): 26.8 µM; TGI (SNB-19 CNS): > 100 µM; TGI (HCT-116 colon): 14.9 µM; TGI (OVCAR-4 ovarian): > 100 µM; TGI (UACC-62 melanoma): > 100 µM; TGI (MDA-N): > 100 µM; TGI (EKVX NSCLC): > 100 µM; TGI (HL-60(TB) leukemia): 15.1 µM; TGI (A498 renal): 62.8 µM; TGI (BT-549 breast): 24.1 µM; TGI (NCI-H23 lung): > 100 µM; TGI (SW-620 colon): 24.4 µM; TGI (HT29 colon): > 100 µM; TGI (HCT-15 colon): > 100 µM; TGI (SN12C renal): > 100 µM; TGI (SNB-75 CNS): 4.78 µM; TGI (NCI-H460 lung): 23.1 µM; TGI (CAKI-1 renal): > 100 µM; TGI (A549 NSCLC): > 100 µM; TGI (K-562 leukemia): 13.6 µM; TGI (UO-31 renal): > 100 µM; TGI (MDA-MB-231 breast): 44 µM; TGI (IGROV1 ovarian): > 100 µM; TGI (UACC-257 melanoma): 31.4 µM; TGI (HOP-62 NSCLC): 35.8 µM; TGI (DU-145 prostate): 23.4 µM; TGI (MALME-3M melanoma): > 100 µM; TGI (MCF7 breast): 17.7 µM; TGI (NCI-H226 lung): 21.8 µM
